± gives the expanded uncertainty stated by the source.

For 28 compounds, activity coefficient results are on record in the NIST ThermoML archive (doi:10.1016/j.jct.2005.04.010).

A short description of this data set: activity coefficient (dimensionless); of the first substance listed, at infinite dilution; xn = mol fraction of the nth substance listed. The note with it: Liquid, x1 = 0.

As for `CCCCC` [pentane] + CCCCCC[n+]1ccn(C)c1.O=S(=O)([N-]S(=O)(=O)C(F)(F)F)C(F)(F)F, the activity coefficient stood at 5.95 ± 0.27 (303.15 K, Chromatography); 5.93 ± 0.3 (303.15 K, dilutor); 5.76 ± 0.26 (313.15 K, Chromatography); 5.67 ± 0.28 (313.15 K, dilutor); 5.65 ± 0.26 (323.15 K, Chromatography); 5.48 ± 0.27 (323.15 K, dilutor). The activity coefficient came to 5.52 ± 0.25 (333.15 K, Chromatography) and 5.27 ± 0.26 (333.15 K, dilutor).
With `CCO` [ethanol] + CCCCCCCCn1cc[n+](C)c1.O=S(=O)([N-]S(=O)(=O)C(F)(F)F)C(F)(F)F, the activity coefficient (303.15 K, Chromatography) was 1.46 ± 0.06; the activity coefficient (313.15 K, Chromatography) is 1.34 ± 0.05; the activity coefficient (323.15 K, Chromatography) came out at 1.22 ± 0.04; the activity coefficient (333.15 K, Chromatography) amounted to 1.12 ± 0.03.
Consider `Cc1ccc(C)cc1` [1,4-dimethylbenzene] + CCCCCCCCn1cc[n+](C)c1.O=S(=O)([N-]S(=O)(=O)C(F)(F)F)C(F)(F)F, for which the activity coefficient is, setting by setting: (303.15 K, Chromatography) 1.11 ± 0.03; (313.15 K, Chromatography) 1.13 ± 0.03; (323.15 K, Chromatography) 1.16 ± 0.04; (333.15 K, Chromatography) 1.16 ± 0.04.
In the case of `Cc1ccc(C)cc1` [1,4-dimethylbenzene] + CCCCCC[n+]1ccn(C)c1.O=S(=O)([N-]S(=O)(=O)C(F)(F)F)C(F)(F)F, the activity coefficient was determined as 1.42 ± 0.05 (303.15 K, Chromatography); 1.42 ± 0.05 (313.15 K, Chromatography); 1.48 ± 0.06 (323.15 K, Chromatography); 1.51 ± 0.06 (333.15 K, Chromatography).
In the case of `CCCCCCC` [heptane] + CCCCCC[n+]1ccn(C)c1.O=S(=O)([N-]S(=O)(=O)C(F)(F)F)C(F)(F)F, the activity coefficient was found to be 11.2 ± 0.5 (303.15 K, Chromatography); 11 ± 0.6 (303.15 K, dilutor); 10.6 ± 0.5 (313.15 K, Chromatography); 10.6 ± 0.5 (313.15 K, dilutor); 10 ± 0.5 (323.15 K, Chromatography); 10.1 ± 0.5 (323.15 K, dilutor). Further, the activity coefficient is 9.67 ± 0.44 (333.15 K, Chromatography) and 9.77 ± 0.49 (333.15 K, dilutor).
Regarding `CCCCCCCC` [octane] + CCCCCC[n+]1ccn(C)c1.O=S(=O)([N-]S(=O)(=O)C(F)(F)F)C(F)(F)F, the activity coefficient by setting is: (303.15 K, Chromatography) 15.2 ± 0.7; (303.15 K, dilutor) 14.4 ± 0.7; (313.15 K, Chromatography) 14.3 ± 0.7; (313.15 K, dilutor) 14.1 ± 0.7; (323.15 K, Chromatography) 13.5 ± 0.6; (323.15 K, dilutor) 13.1 ± 0.7. For the same compound, the activity coefficient worked out at 13 ± 0.6 (333.15 K, Chromatography) and 12.8 ± 0.6 (333.15 K, dilutor).
Turning to `CCCC(C)=O` [pentan-2-one] + CCCC[N+]1(C)CCCC1.O=S(=O)([N-]S(=O)(=O)C(F)(F)F)C(F)(F)F, the activity coefficient by setting is: (303.15 K, dilutor) 0.63 ± 0.03; (313.15 K, dilutor) 0.66 ± 0.03; (323.15 K, dilutor) 0.68 ± 0.03; (333.15 K, dilutor) 0.71 ± 0.04.
As to `c1ccccc1` [benzene] + CCCCCCCCn1cc[n+](C)c1.O=S(=O)([N-]S(=O)(=O)C(F)(F)F)C(F)(F)F, the activity coefficient reads like this: (303.15 K, Chromatography) 0.63 ± 0.03; (313.15 K, Chromatography) 0.65 ± 0.03; (323.15 K, Chromatography) 0.65 ± 0.03; (333.15 K, Chromatography) 0.66 ± 0.03.
`C=CCCCCC` [1-heptene] + CCCCCC[n+]1ccn(C)c1.O=S(=O)([N-]S(=O)(=O)C(F)(F)F)C(F)(F)F: the activity coefficient runs as follows: (303.15 K, Chromatography) 6.46 ± 0.3; (303.15 K, dilutor) 6.28 ± 0.31; (313.15 K, Chromatography) 6.28 ± 0.29; (313.15 K, dilutor) 6.12 ± 0.31; (323.15 K, Chromatography) 6.09 ± 0.28; (323.15 K, dilutor) 5.96 ± 0.3. Moreover, the activity coefficient (333.15 K, Chromatography) is 5.96 ± 0.27 and the activity coefficient (333.15 K, dilutor) worked out at 5.86 ± 0.29.
`CCCCCCCC` [octane] + CCCC[N+]1(C)CCCC1.O=S(=O)([N-]S(=O)(=O)C(F)(F)F)C(F)(F)F: the activity coefficient was 28.3 ± 1.4 (303.15 K, dilutor); 26.5 ± 1.3 (313.15 K, dilutor); 25.2 ± 1.3 (323.15 K, dilutor); 23.7 ± 1.2 (333.15 K, dilutor).
Consider `C=CCCCC` [hex-1-ene] + CCCCCCCCn1cc[n+](C)c1.O=S(=O)([N-]S(=O)(=O)C(F)(F)F)C(F)(F)F, for which the activity coefficient reads like this: (303.15 K, Chromatography) 3.29 ± 0.15; (303.15 K, dilutor) 3.33 ± 0.17; (313.15 K, Chromatography) 3.27 ± 0.15; (313.15 K, dilutor) 3.3 ± 0.17; (323.15 K, Chromatography) 3.18 ± 0.14; (323.15 K, dilutor) 3.27 ± 0.16. Moreover, the activity coefficient reads like this: (333.15 K, Chromatography) 3.18 ± 0.14; (333.15 K, dilutor) 3.23 ± 0.16.
Turning to `CCCC(C)=O` [pentan-2-one] + CCCCCC[n+]1ccn(C)c1.O=S(=O)([N-]S(=O)(=O)C(F)(F)F)C(F)(F)F, the activity coefficient stood at 0.51 ± 0.03 (303.15 K, Chromatography); 0.52 ± 0.03 (313.15 K, Chromatography); 0.54 ± 0.03 (323.15 K, Chromatography); 0.55 ± 0.03 (333.15 K, Chromatography).
For the compound `CCCCCC` [hexane] + CCCCCCCCn1cc[n+](C)c1.O=S(=O)([N-]S(=O)(=O)C(F)(F)F)C(F)(F)F, the activity coefficient by setting is: (303.15 K, Chromatography) 5.32 ± 0.24; (303.15 K, dilutor) 5.44 ± 0.27; (313.15 K, Chromatography) 5.13 ± 0.23; (313.15 K, dilutor) 5.26 ± 0.26; (323.15 K, Chromatography) 4.92 ± 0.22; (323.15 K, dilutor) 5.13 ± 0.26. The activity coefficient by setting is: (333.15 K, Chromatography) 4.8 ± 0.22; (333.15 K, dilutor) 4.97 ± 0.25.
For `CCCO` [propan-1-ol] + CCCCCCCCn1cc[n+](C)c1.O=S(=O)([N-]S(=O)(=O)C(F)(F)F)C(F)(F)F, the activity coefficient was found to be 1.67 ± 0.07 (303.15 K, Chromatography); 1.51 ± 0.06 (313.15 K, Chromatography); 1.35 ± 0.05 (323.15 K, Chromatography); 1.24 ± 0.04 (333.15 K, Chromatography).
Regarding `CC(C)O` [propan-2-ol] + CCCCCC[n+]1ccn(C)c1.O=S(=O)([N-]S(=O)(=O)C(F)(F)F)C(F)(F)F, the activity coefficient by setting is: (303.15 K, Chromatography) 1.71 ± 0.07; (303.15 K, dilutor) 1.72 ± 0.09; (323.15 K, Chromatography) 1.44 ± 0.05; (323.15 K, dilutor) 1.37 ± 0.07; (333.15 K, Chromatography) 1.33 ± 0.05; (333.15 K, dilutor) 1.23 ± 0.06.
Turning to `Cc1cccc(C)c1` [1,3-dimethylbenzene] + CCCCCC[n+]1ccn(C)c1.O=S(=O)([N-]S(=O)(=O)C(F)(F)F)C(F)(F)F, the activity coefficient by setting is: (303.15 K, Chromatography) 1.4 ± 0.05; (313.15 K, Chromatography) 1.41 ± 0.05; (323.15 K, Chromatography) 1.46 ± 0.06; (333.15 K, Chromatography) 1.5 ± 0.06.
For the compound `C=CCCCCCC` [oct-1-ene] + CCCCCCCCn1cc[n+](C)c1.O=S(=O)([N-]S(=O)(=O)C(F)(F)F)C(F)(F)F, the activity coefficient runs as follows: (303.15 K, Chromatography) 5.57 ± 0.25; (313.15 K, Chromatography) 5.48 ± 0.25; (323.15 K, Chromatography) 5.32 ± 0.24; (333.15 K, Chromatography) 5.28 ± 0.24.
`C=CCCCC` [hex-1-ene] + CCCC[N+]1(C)CCCC1.O=S(=O)([N-]S(=O)(=O)C(F)(F)F)C(F)(F)F: the activity coefficient stood at 7.08 ± 0.35 (303.15 K, dilutor); 6.92 ± 0.35 (313.15 K, dilutor); 6.82 ± 0.34 (323.15 K, dilutor); 6.64 ± 0.33 (333.15 K, dilutor).
As to `CC(C)OC(C)C` [diisopropyl ether] + CCCCCC[n+]1ccn(C)c1.O=S(=O)([N-]S(=O)(=O)C(F)(F)F)C(F)(F)F, the activity coefficient runs as follows: (303.15 K, Chromatography) 2.76 ± 0.13; (313.15 K, Chromatography) 2.82 ± 0.13; (323.15 K, Chromatography) 2.85 ± 0.13; (333.15 K, Chromatography) 2.92 ± 0.13.
Take `CCCCCCC` [heptane] + CCCC[N+]1(C)CCCC1.O=S(=O)([N-]S(=O)(=O)C(F)(F)F)C(F)(F)F: the activity coefficient runs as follows: (303.15 K, dilutor) 20.7 ± 1; (313.15 K, dilutor) 19.3 ± 1; (323.15 K, dilutor) 18.2 ± 0.9; (333.15 K, dilutor) 17.2 ± 0.9.
As to `Cc1ccccc1C` [1,2-dimethylbenzene] + CCCCCCCCn1cc[n+](C)c1.O=S(=O)([N-]S(=O)(=O)C(F)(F)F)C(F)(F)F, the activity coefficient (303.15 K, Chromatography) was determined as 0.98 ± 0.03; the activity coefficient (313.15 K, Chromatography) is 1.03 ± 0.03; the activity coefficient (323.15 K, Chromatography) was found to be 1.03 ± 0.03; the activity coefficient (333.15 K, Chromatography) stood at 1.05 ± 0.03.
For `C=CCCCCC` [1-heptene] + CCCC[N+]1(C)CCCC1.O=S(=O)([N-]S(=O)(=O)C(F)(F)F)C(F)(F)F, the activity coefficient by setting is: (303.15 K, dilutor) 10.4 ± 0.5; (313.15 K, dilutor) 9.97 ± 0.5; (323.15 K, dilutor) 9.69 ± 0.48; (333.15 K, dilutor) 9.37 ± 0.47.
For the compound `CCC(C)=O` [butanone] + CCCCCC[n+]1ccn(C)c1.O=S(=O)([N-]S(=O)(=O)C(F)(F)F)C(F)(F)F, the activity coefficient (303.15 K, Chromatography) stood at 0.41 ± 0.03; the activity coefficient (313.15 K, Chromatography) is 0.42 ± 0.03; the activity coefficient (323.15 K, Chromatography) turned out to be 0.44 ± 0.03; the activity coefficient (333.15 K, Chromatography) came out at 0.44 ± 0.03.
`CCO` [ethanol] + CCCCCC[n+]1ccn(C)c1.O=S(=O)([N-]S(=O)(=O)C(F)(F)F)C(F)(F)F: the activity coefficient reads like this: (303.15 K, Chromatography) 1.6 ± 0.06; (313.15 K, Chromatography) 1.47 ± 0.06; (323.15 K, Chromatography) 1.36 ± 0.05; (333.15 K, Chromatography) 1.27 ± 0.04.
Take `C1CCOC1` [tetrahydrofuran] + CCCCCC[n+]1ccn(C)c1.O=S(=O)([N-]S(=O)(=O)C(F)(F)F)C(F)(F)F: the activity coefficient came to 0.49 ± 0.03 (303.15 K, Chromatography); 0.51 ± 0.03 (313.15 K, Chromatography); 0.53 ± 0.03 (323.15 K, Chromatography); 0.55 ± 0.03 (333.15 K, Chromatography).
In the case of `CCCCCCC` [heptane] + CCCCCCCCn1cc[n+](C)c1.O=S(=O)([N-]S(=O)(=O)C(F)(F)F)C(F)(F)F, the activity coefficient reads like this: (303.15 K, Chromatography) 6.82 ± 0.31; (303.15 K, dilutor) 7.01 ± 0.35; (313.15 K, Chromatography) 6.55 ± 0.3; (313.15 K, dilutor) 6.81 ± 0.34; (323.15 K, Chromatography) 6.38 ± 0.29; (323.15 K, dilutor) 6.57 ± 0.33. Also, the activity coefficient amounted to 6.21 ± 0.28 (333.15 K, Chromatography) and 6.4 ± 0.32 (333.15 K, dilutor).
`C1CCCC1` [cyclopentane] + CCCC[N+]1(C)CCCC1.O=S(=O)([N-]S(=O)(=O)C(F)(F)F)C(F)(F)F: the activity coefficient is, setting by setting: (303.15 K, dilutor) 6.14 ± 0.31; (313.15 K, dilutor) 5.7 ± 0.29; (323.15 K, dilutor) 5.41 ± 0.27; (333.15 K, dilutor) 5.12 ± 0.26.
The matching figures for `CCCCCC` [hexane] + CCCC[N+]1(C)CCCC1.O=S(=O)([N-]S(=O)(=O)C(F)(F)F)C(F)(F)F: 13.8 ± 0.7, 13.3 ± 0.7, 12.1 ± 0.6 and 11 ± 0.6.
